Results published in patent publication US20150315179A1, “COMPOUNDS AND METHODS OF TREATING NEUROLOGICAL DISORDERS” (Torrey Pines Institute For Molecular Studies, priority 2014, published 2015).

Experiments:
[1] = test system: Aβ42 levels, NT2 cells stably expressing APP751; assay: Aβ42 ELISA, NT2 stable cells; format: cell-based, human
Protocol: (5). To confirm the effect of THPI-244 on sAPPα levels in a neuronal cell line and by a tertiary assay, we exposed human Neuron-committed Teratocarcinoma cell line (NT2) stably expressing human APP751 to different concentrations of THPI-244 for 24 h and compared with that of Bryostatin, a classical activator of PKC known to stimulate sAPPα release. […] Levels of sAPPα were measured by ELISA using commercially available kit (cat #27734, IBL-America, Minneapolis, Minn., USA). […] Similar biphasic effect of Bryostatin was confirmed for Aβ42 also, measured again in NT2 stable cells by ELISA (cat # KHB3441, Life Technologies, Grand Island, N.Y., USA). Consistent with sAPPα, THPI-244 decreased Aβ42 levels dose-dependently starting from 50 nM (28%, p<0.05) to 2000 nM (64%, p<0.001) (n=4 independent experiments) (FIG. 1.7). Thus THPI-244 increased non-amyloidogenic processing of APP in NT2 cells.

[2] = Brain levels after i.p. injection (LC-MS); format: in vivo, mouse
Protocol: (3). Since blood brain barrier (BBB) is the main obstacle for drug development for any CNS disorders, we first wanted to verify whether compound THPI-244 enters the brain. We followed protocols exactly as published previously from our laboratory (Hayes, C D et al., 2013, BMC Med. 26, 11.81). […] We generated a standard graph (FIG. 1.4 (middle)) to be used in the quantitation of THPI-244 in the brain after intraperitoneal (i.p.) injections at 0.2 mg/kg body weight.

[3] = test system: sAPPα in supernatants of 7WD10 cells; assay: Western blot sAPPα release assay, 7WD10 cells; format: cell-based
Protocol: (2). To ascertain that hits identified as a result of AlphaLISA assay are not due to artifacts of the detection system, the sAPPα levels were measured by Western blots as a secondary assay downstream of primary HTS to confirm hits or discard artifacts of the AlphaLISA assay. The assay was performed using a range of concentrations of hit compounds (10-5,000 nM). A hit compound named thiazole piperazine #244 (THPI-244) and THPI-326 induced dose-dependent increase of sAPPα in supernatants of 7WD10 cells (FIG. 1.3). […] Since compound THPI-244 increased sAPPα levels more than THPI-326, we focused on THPI-244 for further validation.
Western blot sAPPα release assay. 7WD10 cells were grown in 6-well plates and treated with test compounds and SAHA (vorinostat) at several concentrations in duplicate wells. After 24 h of drug exposure, the conditioned media (CM) was collected, centrifuged to remove cell debris and subjected to SDS-PAGE electrophoresis. sAPPα (6E10, mouse IgG from IBL America ltd) was detected using indicated antibody. To detect APP-FL holoprotein and C-terminal fragments (CTFs, CT15 antibody), the cells were lysed using lysis buffer (1% NP40) with complete protease inhibitor mix (Sigma) supplemented with sodium vanadate and microcystine. Samples were subjected to SDS-PAGE, transferred and immunoblotted with indicated antibodies and detected by enhanced chemiluminescence method. Quantification of Western blot signals was done using ImageJ software.

[4] = test system: fibroblasts derived from AD patients; assay: MTT cytotoxicity, AD fibroblasts; format: cell-based, human; conditions: 24 h exposure
From the text: (4). Toxicity is another crucial limitation for successful drug development as evidenced by recent failure of γ-secretase inhibitors at the clinical trials due to cytotoxicity (Cole, S L and Vassar, R, 2007, Mol. Neurodeg. 2, 22-47; Doody R S, et al. 2013. N. Eng. J. Med. 369, 341-350). Therefore we measured cytotoxicity by very sensitive MTT assay as described previously (Hayes, C D., et al. 2013, BMC Medicine. 26, 11.81; 23; Hayes, C D., et al., 2012, PLoS One 7, e45841) in human primary neurons obtained from a commercial source (cat #1520, ScienCell, Carlsbad, Calif., USA) and fibroblasts derived directly from A D patients (cat# AG06263C, Coriell Institute Cell repository supported by NINDS, NIH). […] We directly used human neurons for toxicity studies so as to reduce the chances of future failure at a later stage due to toxicity.

[5] = i.p. 0.2 mg/kg body weight, mouse

With `O=C(Cc1ccccc1)N[C@H](CNc1nc(CN2CCN(C(=O)Cc3ccccc3)CC2)cs1)c1ccccc1` [THPI-244] the “decrease of Aβ42 levels” value ([1]; 50 nM) was 28%, the “decrease of Aβ42 levels” value ([1]; 2000 nM) was 64% and the “concentration from which Aβ42 decrease is significant” value ([1]; ELISA) was 50 nM. For the same molecule, the “amount remaining in the brain at 240 min” value [2, 5] was “negligible amount”, the “time to maximum levels in the brain” value [2, 5] was no more than 5 min and the blood-brain barrier passage ([2]; i.p. administration, mouse brain) was “passes through the blood-brain barrier”. The “levels of APP-FL” value ([3]; CHO cells, Western blot) was “no change”, the “increase of sAPPα over untreated control cells” value ([3]; as low as 10 nM, 7WD10 supernatants) was 2 fold and the “concentration from which cytotoxicity is significant” value [4] was 50 µM.
